#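 How tested: cells in 96-well plates exposed to compound for 48 hours at five concentrations. TGI: concentration producing complete growth inhibition.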
# Assays:
# Assay in all cases: NCI anticancer screen, dose series, 48 h
# [1] = system: M14 melanoma
# [2] = system: SNB-19 CNS
# [3] = system: OVCAR-8 ovarian
# [4] = system: NCI-H23 lung
# [5] = system: XF 498 CNS
# [6] = system: CCRF-CEM leukemia
# [7] = system: OVCAR-5 ovarian
# [8] = system: M19-MEL melanoma
# [9] = system: RXF 393 renal
# [10] = system: MOLT-4 leukemia
# [11] = system: LXFL 529 NSCLC
# [12] = system: NCI-H460 lung
# [13] = system: U251 CNS
# [14] = system: UO-31 renal
# [15] = system: HCC-2998 colon
# [16] = system: HT29 colon
# [17] = system: SK-OV-3 ovarian
# [18] = system: DMS 273 small cell lung
# [19] = system: K-562 leukemia
# [20] = system: NCI-H226 lung
# [21] = system: SNB-75 CNS
# [22] = system: SN12C renal
# [23] = system: COLO 205 colon
# [24] = system: UACC-257 melanoma
# [25] = system: SK-MEL-2 melanoma
# [26] = system: SR leukemia
# [27] = system: SF-268 CNS
# [28] = system: NCI-H522 lung
# [29] = system: DLD-1 colon
# [30] = system: HCT-15 colon
# [31] = system: SF-295 CNS
# [32] = system: A549 NSCLC
# [33] = system: ACHN renal
# [34] = system: CAKI-1 renal
# [35] = system: SW-620 colon
# [36] = system: SK-MEL-28 melanoma
# [37] = system: HOP-62 NSCLC
# [38] = system: HCT-116 colon
# [39] = system: TK-10 renal
# [40] = system: SF-539 CNS
# [41] = system: EKVX NSCLC
# [42] = system: 786-0 renal
# [43] = system: LOX IMVI melanoma
# [44] = system: HL-60(TB) leukemia
# [45] = system: RPMI-8226 leukemia
# [46] = system: KM20L2 colon
# [47] = system: IGROV1 ovarian
# [48] = system: KM12 colon
# [49] = system: OVCAR-4 ovarian
# [50] = system: HOP-18 NSCLC
# [51] = system: MALME-3M melanoma
# [52] = system: UACC-62 melanoma
# [53] = system: A498 renal
# [54] = system: OVCAR-3 ovarian
# [55] = system: HOP-92 NSCLC
# [56] = system: SNB-78 CNS
# [57] = system: DMS 114 small cell lung
# [58] = system: SK-MEL-5 melanoma
smiles,measurement,setting,value
O=C1CC[C@H](NC(=O)Cc2ccccc2)C(=O)N1,TGI,[1],> 1250 µM
same,TGI,[2],> 1250 µM
same,TGI,[3],> 1250 µM
same,TGI,[4],> 1250 µM
same,TGI,[5],> 1250 µM
same,TGI,[6],> 1250 µM
same,TGI,[7],> 1250 µM
same,TGI,[8],> 1250 µM
same,TGI,[9],> 1250 µM
same,TGI,[10],> 1250 µM
same,TGI,[11],> 1250 µM
same,TGI,[12],> 1250 µM
same,TGI,[13],> 1250 µM
same,TGI,[14],> 1250 µM
same,TGI,[15],> 1250 µM
same,TGI,[16],> 1250 µM
same,TGI,[17],> 1250 µM
same,TGI,[18],> 1250 µM
same,TGI,[19],> 1250 µM
same,TGI,[20],> 1250 µM
same,TGI,[21],> 1250 µM
same,TGI,[22],> 1250 µM
same,TGI,[23],> 1250 µM
same,TGI,[24],> 1250 µM
same,TGI,[25],> 1250 µM
same,TGI,[26],> 1250 µM
same,TGI,[27],> 1250 µM
same,TGI,[28],> 1250 µM
same,TGI,[29],> 1250 µM
same,TGI,[30],> 1250 µM
same,TGI,[31],> 1250 µM
same,TGI,[32],> 1250 µM
same,TGI,[33],> 1250 µM
same,TGI,[34],> 1250 µM
same,TGI,[35],> 1250 µM
same,TGI,[36],> 1250 µM
same,TGI,[37],> 1250 µM
same,TGI,[38],> 1250 µM
same,TGI,[39],> 1250 µM
same,TGI,[40],> 1250 µM
same,TGI,[41],> 1250 µM
same,TGI,[42],> 1250 µM
same,TGI,[43],> 1250 µM
same,TGI,[44],> 1250 µM
same,TGI,[45],> 1250 µM
same,TGI,[46],> 1250 µM
same,TGI,[47],> 1250 µM
same,TGI,[48],> 1250 µM
same,TGI,[49],> 1250 µM
same,TGI,[50],> 1250 µM
same,TGI,[51],> 1250 µM
same,TGI,[52],> 1250 µM
Cc1cn(C2CC(OC3CCCCO3)C(CO)O2)c(=O)[nH]c1=O (centres undefined),TGI,[1],> 100 µM
same,TGI,[2],> 100 µM
same,TGI,[3],> 100 µM
same,TGI,[4],> 100 µM
same,TGI,[5],> 100 µM
same,TGI,[6],> 100 µM
same,TGI,[7],> 100 µM
same,TGI,[8],> 100 µM
same,TGI,[9],> 100 µM
same,TGI,[10],> 100 µM
same,TGI,[53],> 100 µM
same,TGI,[11],> 100 µM
same,TGI,[12],> 100 µM
same,TGI,[13],> 100 µM
same,TGI,[14],> 100 µM
same,TGI,[15],> 100 µM
same,TGI,[16],> 100 µM
same,TGI,[17],> 100 µM
same,TGI,[54],> 100 µM
same,TGI,[18],> 100 µM
same,TGI,[19],> 100 µM
same,TGI,[55],> 100 µM
same,TGI,[20],> 100 µM
same,TGI,[22],> 100 µM
same,TGI,[23],> 100 µM
same,TGI,[24],> 100 µM
same,TGI,[25],> 100 µM
same,TGI,[26],> 100 µM
same,TGI,[27],> 100 µM
same,TGI,[28],> 100 µM
same,TGI,[29],> 100 µM
same,TGI,[30],> 100 µM
same,TGI,[31],> 100 µM
same,TGI,[32],> 100 µM
same,TGI,[33],> 100 µM
same,TGI,[35],> 100 µM
same,TGI,[36],> 100 µM
same,TGI,[37],> 100 µM
same,TGI,[38],> 100 µM
same,TGI,[39],> 100 µM
same,TGI,[40],> 100 µM
same,TGI,[41],> 100 µM
same,TGI,[42],> 100 µM
same,TGI,[43],> 100 µM
same,TGI,[44],> 100 µM
same,TGI,[45],> 100 µM
same,TGI,[46],> 100 µM
same,TGI,[47],> 100 µM
same,TGI,[56],> 100 µM
same,TGI,[48],> 100 µM
same,TGI,[49],> 100 µM
same,TGI,[50],> 100 µM
same,TGI,[51],> 100 µM
[N-]=[N+]=Nc1cc(=O)n(-c2ccccc2)c2ccccc12,TGI,[1],> 100 µM
same,TGI,[3],> 100 µM
same,TGI,[4],> 100 µM
same,TGI,[6],> 100 µM
same,TGI,[57],> 100 µM
same,TGI,[7],> 100 µM
same,TGI,[8],> 100 µM
same,TGI,[9],> 100 µM
same,TGI,[10],> 100 µM
same,TGI,[11],> 100 µM
same,TGI,[12],> 100 µM
same,TGI,[13],> 100 µM
same,TGI,[14],> 100 µM
same,TGI,[16],> 100 µM
same,TGI,[17],> 100 µM
same,TGI,[18],> 100 µM
same,TGI,[19],> 100 µM
same,TGI,[20],> 100 µM
same,TGI,[21],> 100 µM
same,TGI,[22],> 100 µM
same,TGI,[23],> 100 µM
same,TGI,[24],> 100 µM
same,TGI,[25],> 100 µM
same,TGI,[26],> 100 µM
same,TGI,[27],> 100 µM
same,TGI,[28],> 100 µM
same,TGI,[58],> 100 µM
same,TGI,[29],> 100 µM
same,TGI,[30],> 100 µM
same,TGI,[31],> 100 µM
same,TGI,[32],> 100 µM
same,TGI,[33],> 100 µM
same,TGI,[34],> 100 µM
same,TGI,[35],> 100 µM
same,TGI,[36],> 100 µM
same,TGI,[37],> 100 µM
same,TGI,[38],> 100 µM
same,TGI,[39],> 100 µM
same,TGI,[40],> 100 µM
same,TGI,[42],> 100 µM
same,TGI,[43],> 100 µM
same,TGI,[44],> 100 µM
same,TGI,[45],> 100 µM
same,TGI,[47],> 100 µM
same,TGI,[48],> 100 µM
same,TGI,[49],> 100 µM
same,TGI,[50],> 100 µM
same,TGI,[51],> 100 µM
same,TGI,[52],> 100 µM

# — PubChem BioAssay (NCI)
